Measurements published in patent US20240140970A1, “A […], AND PREPARATION METHOD AND USE THEREOF” (ASCENTAWITS PHARMACEUTICALS, LTD., priority 2021, published 2024).
Where “and” joins values, the source holds several entries; their conditions need not be identical. Equal values may be shown once.

Tests used:
[1] = Freeze/thaw stability of AST-2660 in human plasma (LC-MS/MS); format: in vitro ADME
Experimental: (§1) The detection method established in example 4 was used to detect the content of AST-2660 in the human plasma to be tested.
Matrix: the mixed normal human plasma containing anticoagulant (K2 EDTA) • a: the internal standard working solution: AST-2660-D8 was taken, added with methanol, and diluted to prepare a solution containing about 100 ng per 1 ml. • b: the solution to be tested (no internal standard compound was added to the solution to be tested at this time): it was obtained by taking a blood sample to be tested. • c: the standard working solution (no internal standard compound was added to the standard working solution at this time): an appropriate amount of AST-2660 was taken and accurately weighed, dissolved with methanol, and diluted to prepare a solution containing about 1.0 mg per 1 ml, which was used as the standard working stock solution. An appropriate amount of the standard working stock solution was taken, added with the matrix and diluted to prepare standard working solutions with different concentrations containing about 200 ng, 160 ng, 100 ng, 50 ng, 10 ng, 2.0 ng, 1.0 ng and 0.5 ng per 1 ml, respectively. (The solution was stored at −70° C.) • d: the quality control sample solution: an appropriate amount of AST-2660 was taken and accurately weighed, dissolved with methanol, and diluted to prepare a solution containing about 10 μg per 1 ml, which was used as the quality control working stock solution. An appropriate amount of the quality control working stock solution was taken, added with matrix to prepare quality control working solutions with different concentrations containing about 150 ng, 60 ng, 15 ng, 1.5 ng and 0.5 ng per 1 ml. (The solution was stored at −70° C.)
The solution to be tested, the standard working solution and the quality control sample solution were thawed at room temperature and mixed uniformly. 100 μl of the above solution was respectively taken, added with 20 μl of the internal standard and 500 μl of methanol, and vortexed for 3 minutes to mix uniformly, and then centrifuged for 10 minutes at 2143 rcf. 450 μl of the supernatant was taken and dried, and 150 μl of methanol was added for redissolution, and sonicated. Then the plates were centrifuged for 3 minutes at 4° C. It was obtained by taking […] of supernatant.
Liquid phase conditions: A SHARC 1, 3 μm, 2.1*50 mm or chromatograph column with equivalent performance was used; the mobile phase was a methanol solution comprising low content of ammonium acetate; the mobile phase B was acetonitrile; the gradient elution was performed according to the following table, column temperature: 20° C.; injection volume: 5 μl.
Mass spectrometric conditions: electrospray ion source with negative ion scanning mode; spray potential: −4500 V; ion source temperature: 500° C.; collision energy (CE): −22 eV; declustering potential (DP): −55V; entrance potential (EP): −10V; collision chamber exit potential (CXP): −16V; dwell time: 100 ms; high purity nitrogen was used for all gases; AST-2660 ions pairs: m/z 147.0→m/z 62.9; the internal standard AST-2660-D8 ion pairs: m/z 155.0→m/z 62.9.
The AST-2660 standard working solution, blank sample, zero concentration sample, sample solution to be tested and quality control sample solution with different concentrations after extraction were respectively taken and injected into LC-MS/MS for detection.
(§2) Calculation results: the relationship function y=f (x) of the ratio of the peak area of the AST-2660 to that of the internal standard was obtained from AST-2660 standard working solutions with different concentrations. The ratio of the peak area of the AST-2660 to that of the internal standard was determined from the solution to be tested after extraction, and substituted into the relationship function y=f (x) to calculate the concentration of the metabolite II in the solution to be tested.

[2] = Stability of treated (extracted) human plasma samples of AST-2660 at 4° C. (LC-MS/MS); format: physicochemical; conditions: stored for 54 hours at 4° C.
Experimental: as §1
Matrix: the mixed normal human plasma containing anticoagulant (K2 EDTA) • a: the internal standard working solution: AST-2660-D8 was taken, added with methanol, and diluted to prepare a solution containing about 100 ng per 1 ml. • b: the solution to be tested (no internal standard compound was added to the solution to be tested at this time): it was obtained by taking a blood sample to be tested. • c: the standard working solution (no internal standard compound was added to the standard working solution at this time): an appropriate amount of AST-2660 was taken and accurately weighed, dissolved with methanol, and diluted to prepare a solution containing about 1.0 mg per 1 ml, which was used as the standard working stock solution. […]
as §2

[3] = DilQC (10-fold dilution) nominal 1500 ng/ml, 5 freeze/thaw cycles at −20° C.
[4] = DilQC (10-fold dilution) nominal 1500 ng/ml, 5 freeze/thaw cycles at −70° C.
[5] = QC1 nominal 1.50 ng/ml, 5 freeze/thaw cycles at −20° C.
[6] = QC1 nominal 1.50 ng/ml, 5 freeze/thaw cycles at −70° C.
[7] = QC4 nominal 150 ng/ml, 5 freeze/thaw cycles at −20° C.
[8] = QC4 nominal 150 ng/ml, 5 freeze/thaw cycles at −70° C.

O=P([O-])(N1CC1)N1CC1.[Na+] [AST-2660]
AST-2660 concentration, Mean value [1, 3]: 1288 ng/mL | AST-2660 concentration, single replicates [1, 3]: 1310 ng/ml (2×) and 1250 ng/ml and 1280 ng/ml | RE (%) vs nominal [1, 3]: −14.2% | AST-2660 concentration, Mean value [1, 4]: 1540 ng/mL | AST-2660 concentration, single replicates [1, 4]: 1650 ng/ml and 1500 ng/ml (2×) and 1510 ng/ml | RE (%) vs nominal [1, 4]: 2.7% | AST-2660 concentration, Mean value [1, 5]: 1.13 ng/mL | AST-2660 concentration, single replicates [1, 5]: 1.13 ng/mL and 1.18 ng/mL and 1.14 ng/mL and 1.06 ng/mL | RE (%) vs nominal [1, 5]: −24.8% | AST-2660 concentration, Mean value [1, 6]: 1.60 ng/mL | AST-2660 concentration, single replicates [1, 6]: 1.69 ng/mL and 1.72 ng/mL and 1.47 ng/mL and 1.51 ng/mL | RE (%) vs nominal [1, 6]: 6.5% | AST-2660 concentration, Mean value [1, 7]: 140 ng/mL | AST-2660 concentration, single replicates [1, 7]: 136 ng/mL and 138 ng/mL and 152 ng/mL and 132 ng/mL | RE (%) vs nominal [1, 7]: −7.0% | AST-2660 concentration, Mean value [1, 8]: 149 ng/mL | AST-2660 concentration, single replicates [1, 8]: 145 ng/ml and 148 ng/ml (2×) and 154 ng/ml | RE (%) vs nominal [1, 8]: −0.8% | change of AST-2660 content (in words) ([1]; freeze-thaw process from −20° C. to room temperature): reduced significantly | change of AST-2660 content (in words) ([1]; freeze-thaw process from −70° C. to room temperature): almost no reduction | stability of content (in words) [2]: stable
